Assay results from patent publication US8129419B2, “Microbicidal composition” (Rohm and Haas Company, priority 2007, dated 2012).
Several values for one entry are separate records, joined by “and”; a condition that tells them apart may be missing. Identical values can stand only once.

Key:
Assay type in all cases: cell-based
A. niger ATCC # 16404 = assay: Synergy test: microtiter plate high resolution MIC assay, PDB medium, 25° C.; conditions: for MIC of the microbicide acting alone (Ca or Cb; QA/QB): A. niger, single component
Source text: (§1) One measure of synergism is the industrially accepted method described by Kull, F. C.; Eisman, P. C.; Sylwestrowicz, H. D. and Mayer, R. L., in Applied Microbiology 9:538-541 (1961), using the ratio determined by the formula: Qa/QA+Qb/QB=Synergy Index(“SI”) wherein: • QA=concentration of compound A (first component) in ppm, acting alone, which produced an end point (MIC of Compound A). • Qa=concentration of compound A in ppm, in the mixture, which produced an end point. • QB=concentration of compound B (second component) in ppm, acting alone, which produced an end point (MIC of Compound B). • Qb=concentration of compound B in ppm, in the mixture, which produced an end point.
(§2) When the sum of Qa/QA and Qb/QB is greater than one, antagonism is indicated. […] The lower the SI, the greater the synergy shown by that particular mixture. The minimum inhibitory concentration (MIC) of a microbicide is the lowest concentration tested under a specific set of conditions that prevents the growth of added microorganisms.
(§3) Synergy tests were conducted using standard microtiter plate assays with media designed for optimal growth of the test microorganism. Minimal salt medium supplemented with 0.2% glucose and 0.1% yeast extract (M9GY medium) was used for testing bacteria; Potato Dextrose Broth (PDB medium) was used for testing yeast and mold. In this method, a wide range of combinations of microbicides was tested by conducting high resolution MIC assays in the presence of various concentrations of MBIT. High resolution MICs were determined by adding varying amounts of microbicide to one column of a microtitre plate and doing subsequent […] dilutions using an automated liquid handling system to obtain a series of endpoints ranging from 2 ppm to 10,000 ppm active ingredient.
(§4) The synergy of the combinations of the present invention was determined against several microorganisms, as described in the Tables below. The bacteria were used at a concentration of about 5×10^6 bacteria per mL and the yeast and mold at 5×10^5 fungi per mL. These microorganisms are representative of natural contaminants in many consumer and industrial applications. […] (yeast and mold) or 30° C. (bacteria).
(§5) In each test, Second Component (B) was MBIT and the First Component (A) was the other commercial microbicide.

C. albicans ATCC # 10231 = assay: as above; conditions: for MIC of the microbicide acting alone (Ca or Cb; QA/QB): C. albicans, single component
Source text: as §1, §2, §3, §4, §5

S. aureus ATCC#6538 = assay: Synergy test: microtiter plate high resolution MIC assay, M9GY medium, 30° C.; conditions: for MIC of the microbicide acting alone (Ca or Cb; QA/QB): S. aureus, single component; for Cb: ppm AI of MBIT alone (MIC end-point, QB): Table 6
Source text: as §1, §2, §3, §4, §5

Ps. aeruginosa ATCC#9027 = assay: as above; conditions: for MIC of the microbicide acting alone (Ca or Cb; QA/QB): Ps. aeruginosa, single component
Source text: as §1, §2, §3, §4, §5

[1] = contact time 48 hrs, MBIT alone (QB) or in mixture with ACQ C2 (Qb)
[2] = contact time 48 hrs, MBIT alone (QB) or in mixture with ACQ type D (Qb)
[3] = contact time 24 hrs, MBIT alone (QB) or in mixture with ACQ C2 (Qb)
[4] = contact time 24 hrs, MBIT alone (QB) or in mixture with ACQ type D (Qb)

CCCCCCCCCCCC(=O)N[C@@H](CCCN=C(N)N)C(=O)OCC.Cl [CYTO GUARD LA, ethyl lauroyl arginate hydrochloride]
MIC of the microbicide acting alone (Ca or Cb; QA/QB) (A. niger ATCC # 16404; contact time 3 days): 110 ppm AI | MIC of the microbicide acting alone (Ca or Cb; QA/QB) (A. niger ATCC # 16404; contact time 7 days): 110 ppm AI | MIC of the microbicide acting alone (Ca or Cb; QA/QB) (C. albicans ATCC # 10231; contact time 48 hrs): 87.5 ppm AI | MIC of the microbicide acting alone (Ca or Cb; QA/QB) (C. albicans ATCC # 10231; contact time 72 hrs): 87.5 ppm AI | MIC of the microbicide acting alone (Ca or Cb; QA/QB) (S. aureus ATCC#6538; contact time 24 hrs): 2.125 ppm AI | MIC of the microbicide acting alone (Ca or Cb; QA/QB) (S. aureus ATCC#6538; contact time 48 hrs): 2.625 ppm AI | MIC of the microbicide acting alone (Ca or Cb; QA/QB) (Ps. aeruginosa ATCC#9027; contact time 48 hrs): 42.5 ppm AI

Cn1sc2ccccc2c1=O [MBIT, N-methyl-1,2-benzisothiazolin-3-one]
Cb: ppm AI of MBIT alone (MIC end-point, QB) (A. niger ATCC # 16404; A. niger ATCC # 16404, contact time 3 days, Table 6): 37.5 ppm | Cb: ppm AI of MBIT alone (MIC end-point, QB) (A. niger ATCC # 16404; A. niger ATCC # 16404, contact time 3 days, Table 7): 37.5 ppm | Cb: ppm AI of MBIT alone (MIC end-point, QB) (A. niger ATCC # 16404; A. niger ATCC # 16404, contact time 3 days, Table 8): 37.5 ppm | Cb: ppm AI of MBIT alone (MIC end-point, QB) (A. niger ATCC # 16404; A. niger ATCC # 16404, contact time 7 days, Table 6): 37.5 ppm | Cb: ppm AI of MBIT alone (MIC end-point, QB) (A. niger ATCC # 16404; A. niger ATCC # 16404, contact time 7 days, Table 7): 75 ppm | Cb: ppm AI of MBIT alone (MIC end-point, QB) (A. niger ATCC # 16404; A. niger ATCC # 16404, contact time 7 days, Table 8): 75 ppm | MIC of the microbicide acting alone (Ca or Cb; QA/QB) (A. niger ATCC # 16404; contact time 3 days): 37.5 ppm AI | MIC of the microbicide acting alone (Ca or Cb; QA/QB) (A. niger ATCC # 16404; contact time 7 days): 37.5 ppm AI and 75 ppm AI | Cb: ppm AI of MBIT at MIC end point (A. niger ATCC # 16404; contact time 3 days, MBIT alone (QB) or in mixture with ACQ C2 (Qb)): 37.5 ppm | Cb: ppm AI of MBIT at MIC end point (A. niger ATCC # 16404; contact time 3 days, MBIT alone (QB) or in mixture with ACQ type D (Qb)): 37.5 ppm | Cb: ppm AI of MBIT at MIC end point (A. niger ATCC # 16404; contact time 7 days, MBIT alone (QB) or in mixture with ACQ C2 (Qb)): 37.5 ppm | Cb: ppm AI of MBIT at MIC end point (A. niger ATCC # 16404; contact time 7 days, MBIT alone (QB) or in mixture with ACQ type D (Qb)): 75 ppm | Cb: ppm AI of MBIT alone (MIC end-point, QB) (C. albicans ATCC # 10231; C. albicans ATCC # 10231, contact time 48 hrs, Table 6): 30 ppm | Cb: ppm AI of MBIT alone (MIC end-point, QB) (C. albicans ATCC # 10231; C. albicans ATCC # 10231, contact time 48 hrs, Table 7): 30 ppm | Cb: ppm AI of MBIT alone (MIC end-point, QB) (C. albicans ATCC # 10231; C. albicans ATCC # 10231, contact time 48 hrs, Table 8): 30 ppm | Cb: ppm AI of MBIT alone (MIC end-point, QB) (C. albicans ATCC # 10231; C. albicans ATCC # 10231, contact time 72 hrs, Table 6): 30 ppm | Cb: ppm AI of MBIT alone (MIC end-point, QB) (C. albicans ATCC # 10231; C. albicans ATCC # 10231, contact time 72 hrs, Table 7): 30 ppm | Cb: ppm AI of MBIT alone (MIC end-point, QB) (C. albicans ATCC # 10231; C. albicans ATCC # 10231, contact time 72 hrs, Table 8): 30 ppm | MIC of the microbicide acting alone (Ca or Cb; QA/QB) (C. albicans ATCC # 10231; contact time 48 hrs): 30 ppm AI | MIC of the microbicide acting alone (Ca or Cb; QA/QB) (C. albicans ATCC # 10231; contact time 72 hrs): 30 ppm AI and 60 ppm AI | Cb: ppm AI of MBIT at MIC end point (C. albicans ATCC # 10231; [1]): 60 ppm | Cb: ppm AI of MBIT at MIC end point (C. albicans ATCC # 10231; [2]): 30 ppm | Cb: ppm AI of MBIT at MIC end point (C. albicans ATCC # 10231; contact time 72 hrs, MBIT alone (QB) or in mixture with ACQ C2 (Qb)): 60 ppm | Cb: ppm AI of MBIT at MIC end point (C. albicans ATCC # 10231; contact time 72 hrs, MBIT alone (QB) or in mixture with ACQ type D (Qb)): 60 ppm | Cb: ppm AI of MBIT alone (MIC end-point, QB) (S. aureus ATCC#6538; S. aureus ATCC#6538, contact time 24 hrs): 15 ppm | Cb: ppm AI of MBIT alone (MIC end-point, QB) (S. aureus ATCC#6538; S. aureus ATCC#6538, contact time 48 hrs): 15 ppm | MIC of the microbicide acting alone (Ca or Cb; QA/QB) (S. aureus ATCC#6538; contact time 24 hrs): 15 ppm AI | MIC of the microbicide acting alone (Ca or Cb; QA/QB) (S. aureus ATCC#6538; contact time 48 hrs): 15 ppm AI | MIC of the microbicide acting alone (Ca or Cb; QA/QB) (S. aureus ATCC#6538; second block of Table 4, contact time not given): 15 ppm AI | Cb: ppm AI of MBIT at MIC end point (S. aureus ATCC#6538; [3]): 15 ppm | Cb: ppm AI of MBIT at MIC end point (S. aureus ATCC#6538; [4]): 15 ppm | Cb: ppm AI of MBIT at MIC end point (S. aureus ATCC#6538; [1]): 15 ppm | Cb: ppm AI of MBIT at MIC end point (S. aureus ATCC#6538; [2]): 15 ppm | Cb: ppm AI of MBIT alone (MIC end-point, QB) (Ps. aeruginosa ATCC#9027; Ps. aeruginosa ATCC#9027, contact time 24 hrs, alone, Table 6): 125 ppm | MIC of the microbicide acting alone (Ca or Cb; QA/QB) (Ps. aeruginosa ATCC#9027; contact time 24 hrs): 125 ppm AI | MIC of the microbicide acting alone (Ca or Cb; QA/QB) (Ps. aeruginosa ATCC#9027; contact time 48 hrs): 125 ppm AI | Cb: ppm AI of MBIT at MIC end point (Ps. aeruginosa ATCC#9027; [3]): 75 ppm | Cb: ppm AI of MBIT at MIC end point (Ps. aeruginosa ATCC#9027; [4]): 75 ppm | Cb: ppm AI of MBIT at MIC end point (Ps. aeruginosa ATCC#9027; [1]): 125 ppm | Cb: ppm AI of MBIT at MIC end point (Ps. aeruginosa ATCC#9027; [2]): 125 ppm

cocamidopropyl-N-2-hydroxyethylcarbamoyl methyl dimethyl ammonium chloride [MONTALINE C40]
MIC of the microbicide acting alone (Ca or Cb; QA/QB) (A. niger ATCC # 16404; contact time 3 days): 650 ppm AI | MIC of the microbicide acting alone (Ca or Cb; QA/QB) (A. niger ATCC # 16404; contact time 7 days): 650 ppm AI | MIC of the microbicide acting alone (Ca or Cb; QA/QB) (C. albicans ATCC # 10231; contact time 48 hrs): 525 ppm AI | MIC of the microbicide acting alone (Ca or Cb; QA/QB) (C. albicans ATCC # 10231; contact time 72 hrs): 1100 ppm AI | MIC of the microbicide acting alone (Ca or Cb; QA/QB) (S. aureus ATCC#6538; contact time 24 hrs): 5 ppm AI | MIC of the microbicide acting alone (Ca or Cb; QA/QB) (S. aureus ATCC#6538; contact time 48 hrs): 5 ppm AI | MIC of the microbicide acting alone (Ca or Cb; QA/QB) (Ps. aeruginosa ATCC#9027; contact time 24 hrs): 300 ppm AI | MIC of the microbicide acting alone (Ca or Cb; QA/QB) (Ps. aeruginosa ATCC#9027; contact time 48 hrs): 300 ppm AI
